The numbers were not newly measured in patent publication US20250144059A1, “GUANIDINOACETIC ACID, ITS DERIVATES, COMPOSITIONS AND METHODS OF USE THEREOF” (priority 2023, published 2025), which cites them from elsewhere.

Molecules are shown by their SMILES.

The conditions of this series: Merck Index 15th Edition 2013, item #4530.

Regarding `N=C(N)NCC(=O)O` [Number G10, guanidinoacetic acid], the solubility in water result is on record as “fairly soluble in water”.
